From patent US20150290204A1, “COMBINATION THERAPY” (NOVARTIS AG, priority 2012, published 2015) come the findings set out here.

The conditions of this data set: mouse, in vivo. The protocol: For the in vivo testing in FIGS. 1 and 2, female nude (nu/nu) harlan mice bearing HLUX-1787 lung primary tumor xenografts were treated with AUY922, Compound A, a combination of AUY922 and Compound A, or vehicle at the indicated doses and schedules. Treatments started 24 days post tumor cells implantation and lasted 20 consecutive days. Statistics on change in tumor volumes and were performed with a one-way ANOVA, post hoc Tukey (* p<0.05 vs. vehicle controls).
For the in vivo testing in FIGS. 3 and 4, female nude (nu/nu) harlan mice bearing HLUX-1787 lung primary tumor xenografts were treated with AUY922, Compound A, a combination of AUY922 and Compound A, or vehicle at the indicated doses and schedules. Treatments started 27 days post tumor cells implantation and lasted 13 consecutive days. Statistics on change in tumor volumes and were performed with a one-way ANOVA, post hoc Tukey (* p<0.05 vs. vehicle controls).
Treatment dose was body weight adjusted. Tumor dimensions and body weights were collected at the time of randomization and twice weekly thereafter for the study duration. […]
The % change in body weight was calculated as (BWcurrent−BWinitial)/(BWinitial)×100%. […]
Tumor volume and percent body weight change were expressed as mean±standard error of the mean (SEM). Plasma concentration of compound was expressed as mean±standard deviation. […]

Molecules are shown by their SMILES. Where two headings read alike, the source gives them in different places.

Turning to `Cc1cc(Nc2ncc(Cl)c(Nc3ccccc3S(=O)(=O)C(C)C)n2)c(OC(C)C)cc1C1CCNCC1` [Compound A, 5-chloro-N2-(2-isopropoxy-5-methyl-4-(piperidin-4-yl)phenyl)-N4-[2-(propane-2-sulfonyl)-phenyl]-pyrimidine-2,4-diamine], the “Tolerability” value is recorded as “well tolerated” (10 mg/kg) and “well tolerated” (25 mg/kg).
